EC50 data for 24 compounds are collected here from BindingDB's records for doi:10.7270/Q2VQ313H (Nmmlsc, 2008).

Structures are written as SMILES. Where a name gives a salt, the structure may show the parent alone.

The first experiment deals with Estrogen receptor beta (Homo sapiens, UniProt Q92731). Put plainly: competitive ligand binding to estrogen receptor beta – cell-based, Cos7 ERbeta-GFP, E2-Alexa633, flow cytometry, dose response (AID 1221).
Estrogen receptor beta, sequence (Q92731 whole entry): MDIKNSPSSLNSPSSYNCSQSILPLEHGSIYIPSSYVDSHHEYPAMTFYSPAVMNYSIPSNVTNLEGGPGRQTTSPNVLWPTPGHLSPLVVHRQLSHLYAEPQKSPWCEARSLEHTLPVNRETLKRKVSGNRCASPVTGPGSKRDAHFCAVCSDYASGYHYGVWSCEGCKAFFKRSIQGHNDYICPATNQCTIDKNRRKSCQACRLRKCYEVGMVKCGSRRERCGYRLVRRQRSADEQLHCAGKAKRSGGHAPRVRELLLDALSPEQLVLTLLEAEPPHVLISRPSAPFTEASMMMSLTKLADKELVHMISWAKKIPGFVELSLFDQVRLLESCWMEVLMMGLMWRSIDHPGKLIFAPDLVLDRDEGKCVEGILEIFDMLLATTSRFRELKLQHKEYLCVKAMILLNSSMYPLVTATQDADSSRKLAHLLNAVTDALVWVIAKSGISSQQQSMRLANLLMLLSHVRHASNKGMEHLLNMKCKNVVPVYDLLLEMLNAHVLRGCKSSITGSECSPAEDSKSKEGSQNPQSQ
Details: not given
Turning to `CC(=O)c1ccc2c(c1)[C@@H]1C=CC[C@@H]1[C@H](c1cc3c(cc1Br)OCO3)N2`, the EC50 was 0.184 µM.

As to `CC(=O)c1ccc2c(c1)C1C=CCC1C(c1cccc([N+](=O)[O-])c1)N2` (centres undefined) [1-[4-(3-nitrophenyl)-3a,4,5,9b-tetrahydro-3H-cyclopenta[c]quinolin-8-yl]ethanone], the EC50 was over 10 µM.

Take `COc1ccccc1N1CCN(C(=O)c2ccc3nc(-c4ccco4)c(-c4ccco4)nc3c2)CC1` [2,3-di-2-furyl-6-{[4-(2-methoxyphenyl)piperazin-1-yl]carbonyl}quinoxaline]: a half-maximal effect (EC50) was put at 0.00087 µM.

Turning to `O=C(Nc1cc(C(F)(F)F)ccc1N1CCOCC1)C1Cc2ccccc2CN1C(=O)c1ccco1` (centres undefined) [2-(2-furoyl)-N-[2-morpholino-5-(trifluoromethyl)phenyl]-3,4-dihydro-1H-isoquinoline-3-carboxamide], the midpoint of the response, the EC50, lay at 1.26 µM.

The compound `CCn1nnc(NC(=O)CSc2ccc(Cl)cc2)n1` [2-(4-chlorophenyl)sulfanyl-N-(2-ethyl-1,2,3,4-tetrazol-5-yl)ethanamide] registered an EC50 of over 10 µM.

`CCc1ccc(-c2nn(-c3ccccc3)cc2CSC(=N)N)cc1` [2-[[3-(4-ethylphenyl)-1-phenyl-pyrazol-4-yl]methyl]isothiourea;hydrochloride] gave an EC50 of 0.0399 µM.

`CC(=O)Oc1ccc(C2Nc3c(C(=O)O)ccc([N+](=O)[O-])c3C3C=CCC32)cc1` (centres undefined) [4-(4-acetoxyphenyl)-9-nitro-3a,4,5,9b-tetrahydro-3H-cyclopenta[c]quinoline-6-carboxylic acid] registered an EC50 of over 10 µM.

Regarding `O=C(COC(=O)CCC(=O)c1cccs1)NCc1ccco1` [4-keto-4-(2-thienyl)butyric acid [2-(2-furfurylamino)-2-keto-ethyl] ester], the EC50 was 0.00174 µM.

Compound `Nc1ncnc2c1ncn2C1CCC(CO)C(O)C1` (centres undefined) [5-(6-aminopurin-9-yl)-2-(hydroxymethyl)-1-cyclohexanol] displayed an EC50 of 0.00214 µM.

In the case of `O=C(c1cc2ncc(Br)cn2n1)N1CCN(C(=O)c2ccco2)CC1` [6-bromo-2-{[4-(2-furoyl)-1-piperazinyl]carbonyl}pyrazolo[1,5-a]pyrimidine], the EC50 was found to be 0.00273 µM. The EC50 values of the last two compounds are within 1.5-fold of each other.

Turning to `O=C(O)c1ccc([N+](=O)[O-])c2c1NC(c1ccccc1)C1CC=CC21` (centres undefined) [9-nitro-4-phenyl-3a,4,5,9b-tetrahydro-3H-cyclopenta[c]quinoline-6-carboxylic acid], the response was half-maximal at 0.00065 µM (EC50).

`CCC(=O)Oc1ccc(C(CC)C(CC)c2ccc(OC(=O)CC)cc2)cc1` (centres undefined) [HEXESTROL DIPROPIONATE] had an EC50 of 0.00769 µM.

As for `O=C1C=C/C(=C2/Nc3ccc4ccccc4c3C3=C2CCC3)C=C1O` [SMR000184811], the EC50 is over 10 µM.

The same experiment, now with this note: inactive by the depositor's call.
`COc1ccc(NS(=O)(=O)c2ccc3c(c2)[C@H]2C=CC[C@H]2[C@@H](c2ccc(C(=O)O)cc2)N3)cc1` gave an EC50 of 2.28 µM.

Turning to `Nc1ccc(-c2nc3cc([N+](=O)[O-])ccc3[nH]2)cc1`, the EC50 came out at 2.35 µM.

Turning to `O=C(OCC(=O)N1CCN(C(=O)c2ccco2)CC1)c1cc(-c2ccco2)nc2ccccc12` [2-(2-furanyl)-4-quinolinecarboxylic acid [2-[4-[2-furanyl(oxo)methyl]-1-piperazinyl]-2-oxoethyl] ester], the half-maximal effective concentration (EC50) came out at 0.0163 µM.

Regarding `Cc1cc(-c2nn3c(-c4ccccc4)nnc3s2)c2ccccc2n1` [2-methyl-4-(3-phenyl[1,2,4]triazolo[3,4-b][1,3,4]thiadiazol-6-yl)quinoline], the EC50 was found to be 4.18 µM.

Compound `CCCCOC(=O)c1c(C)oc2ccc(NS(=O)(=O)c3ccc4c5c(cccc35)C(=O)N4)cc12` [2-methyl-5-[(2-oxo-1H-benzo[cd]indol-6-yl)sulfonylamino]-3-benzofurancarboxylic acid butyl ester] gave an EC50 of 0.0837 µM.

With `Cc1oc2cc(O)ccc2c(=O)c1Oc1ccccc1` [2-methyl-7-oxidanyl-3-phenoxy-chromen-4-one], the response was half-maximal at 0.438 µM (EC50). This EC50 is about 5.2-fold higher than that of the compound before.

The compound `Cc1ccc(C(=O)N/N=C/c2ccc([N+](=O)[O-])s2)cc1` [4-methyl-N-[(5-nitro-2-thiophenyl)methylideneamino]benzamide] had an EC50 of 0.0707 µM.

In the case of `Cc1cc(C)c2c(c1)[C@@H]1C=CC[C@@H]1[C@H](c1ccc(S(=O)(=O)N3CCOCC3)cc1)N2` [(3aS,4R,9bR)-6,8-dimethyl-4-[4-(morpholin-4-ylsulfonyl)phenyl]-3a,4,5,9b-tetrahydro-3H-cyclopenta[c]quinoline], the EC50 came to 0.165 µM.

`O=C(O)c1cc(Cl)c2c(c1)[C@@H]1C=CC[C@@H]1[C@H](c1ccc(S(=O)(=O)N3CCOCC3)cc1)N2` [(3aS,4R,9bR)-6-chloranyl-4-(4-morpholin-4-ylsulfonylphenyl)-3a,4,5,9b-tetrahydro-3H-cyclopenta[c]quinoline-8-carboxylic acid] registered an EC50 of 0.729 µM.

In the case of `C[C@]12CC[C@@H]3c4ccc(O)cc4C(=O)C[C@H]3[C@@H]1CC[C@@H]2O` [(8R,9S,13S,14S,17S)-13-methyl-3,17-bis(oxidanyl)-8,9,11,12,14,15,16,17-octahydro-7H-cyclopenta[a]phenanthren-6-one], the EC50 was 0.0381 µM.

With `COc1ccc(CNC(=O)c2cc(-c3cccs3)on2)cc1` [MLS000087249], the EC50 was determined as 0.0994 µM.
